# Results from US20260201476A1, “METHODS FOR IDENTIFYING RESISTANCE OR RESPONSE TO VENETOCLAX/HYPOMETHYLATING AGENT/ANTI-CD70 AGENT TREATMENT FOR ACUTE MYELOID LEUKEMIA” (The Regents of the University of Colorado, A Body Corporate, priority 2022, published 2026).
# Where two headings read alike, the source gives them in different places.
# Assays:
# [1] = system: newly diagnosed AML; conditions: 1118 newly diagnosed AML patients, cited from earlier work
# [2] = system: AML; conditions: older previously untreated AML patients; venetoclax in combination with backbone chemotherapy treatments; cited from earlier work
# [3] = system: AML; assay: Survival probability of AML subjects by biomarker after venetoclax/azacitidine with or without cusatuzumab (Example 3); type: in vivo, human
# From the text: The following is a non-limiting example of analysis showing the response of AML subjects to treatment with a combination of venetoclax and azacitidine, or a combination of venetoclax, azacitidine and cusatuzumab, based on various different biomarkers.
# FIGS. 12-15 are a series of graphs showing the survival probability of AML subjects after receiving a combination of venetoclax, azacitidine and cusatuzumab. The left panel of each of FIGS. 12-15 are all subjects for which data was available, and the right panel is a subset of the data presented in the left panel minus the subjects who received at least one stem cell transplant.
# FIGS. 16-18 are a series of graphs showing the survival probability of AML subjects after receiving either a combination of venetoclax and azacitidine (top panels) or a combination of venetoclax, azacitidine and cusatuzumab (bottom panels).
compound,measurement,setting,value
"Nc1ccn([C@@H]2O[C@H](CO)[C@@H](O)[C@@H]2O)c(=O)n1 [cytarabine, 4-amino-1-[(2R,3S,4S,5R)-3,4-dihydroxy-5-(hydroxymethyl)oxolan-2-yl] pyrimidin-2-one]",5-year OS,[1]; ELN 2022 adverse risk group,15%
same,5-year OS,[1]; ELN 2022 favorable risk group,55%
same,5-year OS,[1]; ELN 2022 intermediate risk group,34%
"CC1(C)CCC(CN2CCN(c3ccc(C(=O)NS(=O)(=O)c4ccc(NCC5CCOCC5)c([N+](=O)[O-])c4)c(Oc4cnc5[nH]ccc5c4)c3)CC2)=C(c2ccc(Cl)cc2)C1 [venetoclax, 4-(4-{[2-(4-Chlorophenyl)-4,4-dimethyl-1-cyclohexen-1-yl]methyl}-1-piperazinyl)-N-({3-nitro-4-[(tetrahydro-2H-pyran-4-ylmethyl)amino]phenyl}sulfonyl)-2-(1H-pyrrolo[2,3-b]pyridin-5-yloxy)benzamide]",responses,[2],60-70%
cusatuzumab: an anti-CD70 monoclonal antibody currently being tested in clinical trials for the treatment of AML,effect of adding cusatuzumab to venetoclax and azacitidine on survival,[3]; CD7+ AML (FIG. 16),overcome the poor prognostic significant of CD7+ AML
same,effect of adding cusatuzumab to venetoclax and azacitidine on survival,"[3]; FIG. 18 (PTPN11), text prints mutated KRAS",overcome the poor prognostic significant of mutated KRAS
same,effect of adding cusatuzumab to venetoclax and azacitidine on survival,[3]; mutated KRAS (FIG. 17),overcome the poor prognostic significant of mutated KRAS
